# Where two headings read alike, the source gives them in different places.
# Key:
# B. cereus ATCC 11778 = assay: MIC, NCCLS broth microdilution assay; format: cell-based, Bacillus cereus; conditions: for MIC: Bacillus cereus
# C. albicans ATCC 38247 = assay: MIC, antifungal assay; format: cell-based, Candida albicans; conditions: for MIC: Candida albicans
# Source text: In vitro biological activity data were collected for a variety of microorganisms, including Bacillus cereus (ATCC 11778), Staphylococcus aureus (ATCC 33591; ATCC 27660, a methicillin resistant strain (MRSA); ATCC 13709, a methicillin sensitive strain (MSSA)), Escherichia coli (ATCC 25922), Enterococcus faecalis (ATCC 29212), Streptococcus pneumoniae (ATCC 49619; ATCC 51422, a penicillin resistant strain (PRSP)), Enterococcus faecium (ATCC 51559, a vancomycin resistant strain (VRE)), and Staphylococcus epidermidis (ATCC 12228). Additionally, antifungal activity data were collected for Candida albicans (ATCC 38247).
# The minimal inhibition concentration (MIC) of these compounds was determined using the National Committee for Clinical Laboratory Standards (NCCLS) broth microdilution assay in microtiter plates, as set forth in: (1) the guidelines of the National Committee for Clinical Laboratory Standards (NCCLS) Document M7-A4 (NCCLS, 1997); (2) the guidelines of the National Committee for Clinical Laboratory Standards (NCCLS) Document M11-A4 (NCCLS, 1997); and (3) the guidelines and reference method of the National Committee for Clinical Laboratory Standards (NCCLS) Document M27 -T (NCCLS, 1995). For antifungal assays, the method recommended in Murray, PR., 1995 Manual of Clinical Microbiology (ASM Press, Washington, D.C.), was employed.
# E. faecalis ATCC 29212 = assay: MIC, NCCLS broth microdilution assay; format: cell-based, Enterococcus faecalis; conditions: for MIC: Enterococcus faecalis
# S. aureus ATCC 13709 = assay: MIC, NCCLS broth microdilution assay; format: cell-based, Staphylococcus aureus; conditions: for MIC: Staphylococcus aureus, ATCC 13709 / MSSA, read-out: Minimum Inhibitory Concentration (MIC)
# S. aureus ATCC 27660 = assay: MIC, NCCLS broth microdilution assay; format: cell-based, Staphylococcus aureus; conditions: for MIC: Staphylococcus aureus, ATCC 27660 / MRSA, read-out: Minimum Inhibitory Concentration (MIC)
# S. aureus ATCC 33591 = assay: MIC, NCCLS broth microdilution assay; format: cell-based, Staphylococcus aureus; conditions: for MIC: Staphylococcus aureus
# Source text: In vitro biological activity data were collected for a variety of microorganisms, including Bacillus cereus (ATCC 11778), Staphylococcus aureus (ATCC 33591; ATCC 27660, a methicillin resistant strain (MRSA); ATCC 13709, a methicillin sensitive strain (MSSA)), Escherichia coli (ATCC 25922), Enterococcus faecalis (ATCC 29212), Streptococcus pneumoniae (ATCC 49619; ATCC 51422, a penicillin resistant strain (PRSP)), Enterococcus faecium (ATCC 51559, a vancomycin resistant strain (VRE)), and Staphylococcus epidermidis (ATCC 12228).
# The minimal inhibition concentration (MIC) of these compounds was determined using the National Committee for Clinical Laboratory Standards (NCCLS) broth microdilution assay in microtiter plates, as set forth in: (1) the guidelines of the National Committee for Clinical Laboratory Standards (NCCLS) Document M7-A4 (NCCLS, 1997); (2) the guidelines of the National Committee for Clinical Laboratory Standards (NCCLS) Document M11-A4 (NCCLS, 1997); and (3) the guidelines and reference method of the National Committee for Clinical Laboratory Standards (NCCLS) Document M27 -T (NCCLS, 1995).
# S. pneumoniae ATCC 49619 = assay: MIC, NCCLS broth microdilution assay; format: cell-based, Streptococcus pneumoniae; conditions: for MIC: Streptococcus pneumoniae
# E. coli ATCC 25922 = assay: MIC, NCCLS broth microdilution assay; format: cell-based, Escherichia coli; conditions: for MIC: Escherichia coli
# [1] = S. aureus ATCC 13709, methicillin sensitive strain (MSSA)
# [2] = S. aureus ATCC 27660, methicillin resistant strain (MRSA)
Compound,Minimum Inhibitory Concentration (MIC) (B. cereus ATCC 11778; B. cereus ATCC 11778),Minimum Inhibitory Concentration (MIC) (C. albicans ATCC 38247; C. albicans ATCC 38247),Minimum Inhibitory Concentration (MIC) (E. faecalis ATCC 29212; E. faecalis ATCC 29212),Minimum Inhibitory Concentration (MIC) (S. aureus ATCC 13709; [1]),Minimum Inhibitory Concentration (MIC) (S. aureus ATCC 27660; [2]),Minimum Inhibitory Concentration (MIC) (S. aureus ATCC 33591; S. aureus ATCC 33591),Minimum Inhibitory Concentration (MIC) (S. pneumoniae ATCC 49619; S. pneumoniae ATCC 49619),Minimum Inhibitory Concentration (MIC) (E. coli ATCC 25922; E. coli ATCC 25922),further results
CN(CCCN)CCCNc1ncccc1C(=O)Nc1ccc(-c2cc3ccccc3o2)nc1 [Compound A-39],,,,,,,,,"MIC (B. cereus ATCC 11778; ATCC11778, B. cereus ATCC 11778, read-out: Minimum Inhibitory Concentration (MIC)): 12 to 32 µg/mL; MIC (C. albicans ATCC 38247; ATCC38247, C. albicans ATCC 38247, read-out: Minimum Inhibitory Concentration (MIC)): > 32 µg/mL; MIC (E. faecalis ATCC 29212; ATCC29212, E. faecalis ATCC 29212, read-out: Minimum Inhibitory Concentration (MIC)): 12 to 32 µg/mL; MIC (S. aureus ATCC 13709; [1]): 12 to 32 µg/mL; MIC (S. aureus ATCC 27660; [2]): 12 to 32 µg/mL; MIC (S. aureus ATCC 33591; ATCC33591, S. aureus ATCC 33591, read-out: Minimum Inhibitory Concentration (MIC)): 12 to 32 µg/mL; MIC (S. pneumoniae ATCC 49619; ATCC49619, S. pneumoniae ATCC 49619, read-out: Minimum Inhibitory Concentration (MIC)): 12 to 32 µg/mL; MIC (E. coli ATCC 25922; ATCC25922, E. coli ATCC 25922, read-out: Minimum Inhibitory Concentration (MIC)): > 32 µg/mL"
NCCNc1ncccc1C(=O)Nc1ccc(-c2cc3ccccc3o2)nc1 [Compound A-40],+ (12 ≦ MIC ≦ 32),+ (12 ≦ MIC ≦ 32),++ (4 < MIC < 12),++ (4 < MIC < 12),++ (4 < MIC < 12),+ (12 ≦ MIC ≦ 32),>32 µg/mL,+ (12 ≦ MIC ≦ 32),
CN(CCCN)CCCNc1cc(Cl)ccc1C(=O)Nc1ccc(-c2cc3ccccc3o2)nc1 [Compound A-41],++ (4 < MIC < 12),++ (4 < MIC < 12),+++ (MIC ≦ 4),+++ (MIC ≦ 4),+++ (MIC ≦ 4),+++ (MIC ≦ 4),+ (12 ≦ MIC ≦ 32),++ (4 < MIC < 12),
O=C(Nc1ccc(-c2cc3ccccc3o2)nc1)c1ccc(Cl)cc1NCCN1CCCC1 [Compound A-43],++ (4 < MIC < 12),>32 µg/mL,++ (4 < MIC < 12),++ (4 < MIC < 12),++ (4 < MIC < 12),++ (4 < MIC < 12),+ (12 ≦ MIC ≦ 32),>32 µg/mL,
CN(C)CCCNc1cc(Cl)ccc1C(=O)Nc1ccc(-c2cc3ccccc3o2)nc1 [Compound A-44],++ (4 < MIC < 12),++ (4 < MIC < 12),++ (4 < MIC < 12),++ (4 < MIC < 12),++ (4 < MIC < 12),++ (4 < MIC < 12),+ (12 ≦ MIC ≦ 32),>32 µg/mL,
NCCNc1cc(Cl)ccc1C(=O)Nc1ccc(-c2cc3ccccc3o2)nc1 [Compound A-45],,,,,,,,,"MIC (B. cereus ATCC 11778; ATCC11778, read-out: Minimum Inhibitory Concentration (MIC)): 4 to 12 µg/mL; MIC (C. albicans ATCC 38247; ATCC38247, read-out: Minimum Inhibitory Concentration (MIC)): 4 to 12 µg/mL; MIC (E. faecalis ATCC 29212; ATCC29212, read-out: Minimum Inhibitory Concentration (MIC)): 4 to 12 µg/mL; MIC (S. aureus ATCC 13709): < 4 µg/mL; MIC (S. aureus ATCC 27660): < 4 µg/mL; MIC (S. aureus ATCC 33591; ATCC33591, read-out: Minimum Inhibitory Concentration (MIC)): < 4 µg/mL; MIC (S. pneumoniae ATCC 49619; ATCC49619, read-out: Minimum Inhibitory Concentration (MIC)): 12 to 32 µg/mL; MIC (E. coli ATCC 25922; ATCC25922, read-out: Minimum Inhibitory Concentration (MIC)): > 32 µg/mL"
O=C(Nc1ccc(-c2cc3ccccc3s2)cc1)c1nsc(NCCN2CCCC2)c1Cl [Compound A-46],>32 µg/mL,>32 µg/mL,>32 µg/mL,+ (12 ≦ MIC ≦ 32),+ (12 ≦ MIC ≦ 32),>32 µg/mL,>32 µg/mL,>32 µg/mL,
O=C(Nc1ccc(-c2cc3ccccc3s2)cc1)c1cccnc1NCCN1CCNCC1 [Compound A-48],+ (12 ≦ MIC ≦ 32),>32 µg/mL,>32 µg/mL,+++ (MIC ≦ 4),+++ (MIC ≦ 4),+++ (MIC ≦ 4),>32 µg/mL,>32 µg/mL,
Cc1ccc2nc(-c3ccc(NC(=O)c4nsc(NCCCN(C)C)c4Cl)cc3)sc2c1 [Compound A-54],+++ (MIC ≦ 4),+++ (MIC ≦ 4),+++ (MIC ≦ 4),+++ (MIC ≦ 4),+++ (MIC ≦ 4),+++ (MIC ≦ 4),+ (12 ≦ MIC ≦ 32),>32 µg/mL,
Cc1ccc2oc(-c3ccc(NC(=O)c4nsc(NCCCN(C)C)c4Cl)cc3)cc2n1 [Compound A-55],+ (12 ≦ MIC ≦ 32),++ (4 < MIC < 12),+ (12 ≦ MIC ≦ 32),++ (4 < MIC < 12),++ (4 < MIC < 12),+ (12 ≦ MIC ≦ 32),+ (12 ≦ MIC ≦ 32),>32 µg/mL,
NCCNc1snc(C(=O)Nc2ccc(-c3cc4ccccc4[nH]3)cc2)c1Cl [Compound A-56],>32 µg/mL,+ (12 ≦ MIC ≦ 32),+ (12 ≦ MIC ≦ 32),++ (4 < MIC < 12),++ (4 < MIC < 12),++ (4 < MIC < 12),>32 µg/mL,>32 µg/mL,
CN(C)CCCNc1snc(C(=O)Nc2ccc(-c3cc4ccccc4[nH]3)cc2)c1Cl [Compound A-57],+ (12 ≦ MIC ≦ 32),+++ (MIC ≦ 4),++ (4 < MIC < 12),++ (4 < MIC < 12),++ (4 < MIC < 12),+ (12 ≦ MIC ≦ 32),>32 µg/mL,>32 µg/mL,
O=C(Nc1ccc(-c2cc3ccccc3[nH]2)cc1)c1nsc(NCCN2CCCC2)c1Cl [Compound A-58],+ (12 ≦ MIC ≦ 32),+++ (MIC ≦ 4),++ (4 < MIC < 12),+ (12 ≦ MIC ≦ 32),++ (4 < MIC < 12),++ (4 < MIC < 12),+ (12 ≦ MIC ≦ 32),>32 µg/mL,
O=C(Nc1ccc(-c2cc3ccccc3[nH]2)cc1)c1nsc(NCCN2CCNCC2)c1Cl [Compound A-59],+ (12 ≦ MIC ≦ 32),+++ (MIC ≦ 4),+++ (MIC ≦ 4),++ (4 < MIC < 12),++ (4 < MIC < 12),+ (12 ≦ MIC ≦ 32),+ (12 ≦ MIC ≦ 32),>32 µg/mL,
O=C(Nc1ccc(-c2cc3ccccc3[nH]2)cc1)c1nsc(NCCN2CCOCC2)c1Cl [Compound A-60],>32 µg/mL,>32 µg/mL,>32 µg/mL,>32 µg/mL,>32 µg/mL,>32 µg/mL,>32 µg/mL,>32 µg/mL,
CN1CCN(CCNc2snc(C(=O)Nc3ccc(-c4cc5ccccc5[nH]4)cc3)c2Cl)CC1 [Compound A-61],>32 µg/mL,+++ (MIC ≦ 4),>32 µg/mL,>32 µg/mL,>32 µg/mL,>32 µg/mL,>32 µg/mL,>32 µg/mL,
O=C(Nc1ccc(-c2cc3ccccc3[nH]2)cc1)c1cccnc1NCCN1CCOCC1 [Compound A-66],>32 µg/mL,>32 µg/mL,>32 µg/mL,>32 µg/mL,>32 µg/mL,>32 µg/mL,>32 µg/mL,>32 µg/mL,
